# In patent US10829487B2, “Benzylamino substituted pyridopyrimidinones and derivatives as SOS1 inhibitors” (Boehringer Ingelheim International GmbH, priority 2017, dated 2020):
# pIC50: −log10 of the molar value.
# Target: protein-protein interaction between SOS1 and KRAS G12D (Homo sapiens (Human), UniProt Q07889)
# Assay: KRAS::SOS1 AlphaScreen Binding Assay
# Details: Table 20; KRAS::SOS1 AlphaScreen (SOS1 / KRAS G12D)
# Description: KRAS::SOS1 AlphaScreen Binding Assay
# Low IC50 values are indicative of high potency of the SOS1 inhibitor compound in this assay setting:
# Reagents: • GST-tagged SOS1 (564_1049_GST_TEV_ECO) produced in-house • GST-TEV-SOS1 (564-1049) is purchased from Viva Biotech Ltd. • 6×His-Tev-K-RasG12D(1-169)Avi is purchased from Xtal BioStructures, Inc. (Lot # X129-110) • GDP (Sigma Cat No G7127) • AlphaLISA Glutathione Acceptor Beads (PerkinElmer, Cat No AL109) • AlphaScreen Streptavidin Donor Beads (PerkinElmer Cat No 6760002) • Assay plates: Proxiplate-384 PLUS, white (PerkinElmer, Cat No 6008289)
# 10 nM (final assay concentration) KRAS G12D, 10 μM (final assay concentration) GDP and 5 nM (final assay concentration) GST-SOS1 are mixed in assay buffer prior to use and kept at room temperature.
# AlphaLISA Glutathione Acceptor Beads and AlphaScreen Streptavidin Donor Beads are mixed in assay buffer at a concentration of 10 μg/mL (final assay concentration) each prior to use and kept at room temperature.
# Compounds are diluted to a final start concentration of 100 μM and are tested in duplicate. Assay-ready plates (ARPs) are generated using an Access Labcyte Workstation with a Labcyte Echo 550 or 555 accoustic dispenser. For compound a start concentration of 100 μM, 150 nL of compound solution is transferred per well in 11 concentrations in duplicate with serial 1:5 dilutions.
# The assay is run using a fully automated robotic system in a darkened room below 100 Lux. 10 μL of KRAS::SOS1 GDP mix is added into columns 1-24 to the 150 nL of compound solution (final dilution in the assay 1:100, final DMSO concentration 1%).
# After a 30 minute incubation time 5 μL of bead mix is added into columns 1-23. Plates are kept at room temperature in a darkened incubator. After a further 60 minute incubation, the signal is measured using a PerkinElmer Envision HTS Multilabel Reader using the AlphaScreen specifications from PerkinElmer. Each plate contains the following controls: • diluted DMSO+KRAS::SOS1 GDP mix+bead mix • diluted DMSO+KRAS::SOS1 GDP mix
# IC50 values are calculated and analyzed using a 4 parametric logistic model.
# protein-protein interaction between SOS1 and KRAS G12D, sequence (Q07889 564-1049, stated change not applied): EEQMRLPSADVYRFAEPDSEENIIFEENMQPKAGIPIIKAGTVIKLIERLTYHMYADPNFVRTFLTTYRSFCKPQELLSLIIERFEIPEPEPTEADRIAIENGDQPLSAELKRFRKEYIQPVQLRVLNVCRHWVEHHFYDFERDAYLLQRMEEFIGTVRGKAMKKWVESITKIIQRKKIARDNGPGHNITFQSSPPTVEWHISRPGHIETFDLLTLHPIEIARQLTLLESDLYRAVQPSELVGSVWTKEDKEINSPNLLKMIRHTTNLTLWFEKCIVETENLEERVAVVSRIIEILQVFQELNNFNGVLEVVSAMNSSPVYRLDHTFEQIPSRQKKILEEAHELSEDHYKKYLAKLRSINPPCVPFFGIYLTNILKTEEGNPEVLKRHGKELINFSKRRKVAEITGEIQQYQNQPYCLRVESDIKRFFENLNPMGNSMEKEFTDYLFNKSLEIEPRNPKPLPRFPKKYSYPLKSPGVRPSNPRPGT
row,SMILES,pIC50
1,Cc1nc(N[C@H](C)c2cccc(C(F)F)c2F)c2cn(C3(C)CC3)c(=O)cc2n1 [I-1],8.30
2,Cc1nc(N[C@H](C)c2cccc(C(F)F)c2F)c2cn(C3(CF)CC3)c(=O)cc2n1 [I-2],8.40
3,CCC1(n2cc3c(N[C@H](C)c4cccc(C(F)F)c4F)nc(C)nc3cc2=O)CC1 [I-5],7.92
4,COCC1(n2cc3c(N[C@H](C)c4cccc(C(F)F)c4F)nc(C)nc3cc2=O)CC1 [I-6],8.22
5,Cc1nc(N[C@H](C)c2cccc(C(F)F)c2F)c2cn(C3(c4ccncc4)CC3)c(=O)cc2n1 [I-7],8.10
6,Cc1nc(N[C@H](C)c2cccc(C(F)F)c2F)c2cn(C3(c4ccccc4)CC3)c(=O)cc2n1 [I-8],7.80
7,Cc1nc(N[C@H](C)c2cccc(C(F)F)c2F)c2cn(C3(c4ccc(F)cc4)CC3)c(=O)cc2n1 [I-9],7.52
8,Cc1nc(N[C@H](C)c2cccc(C(F)F)c2F)c2cn(C3(C)CCC3)c(=O)cc2n1 [I-11],8.30
9,Cc1nc(N[C@H](C)c2cccc(C(F)F)c2F)c2cn([C@H]3C[C@H](F)C3)c(=O)cc2n1 [I-12],8.15
10,Cc1nc(N[C@H](C)c2cccc(C(F)F)c2F)c2cn(C34CC(C3)C4)c(=O)cc2n1 [I-15],8.10
11,Cc1nc(N[C@H](C)c2cccc(C(F)F)c2F)c2cn(C34CC(F)(C3)C4)c(=O)cc2n1 [I-16],7.92
12,Cc1nc(N[C@H](C)c2cccc(C(F)F)c2F)c2cn(C34CC(N5CCOCC5)(C3)C4)c(=O)cc2n1 [I-17],8.30
13,Cc1nc(N[C@H](C)c2cccc(C(F)F)c2F)c2cn(C3CCOCC3)c(=O)cc2n1 [I-18],8.30
14,Cc1nc(N[C@H](C)c2cccc(C(F)F)c2F)c2cn(C34CCC(CC3)C4)c(=O)cc2n1 [I-19],8.70
15,Cc1nc(N[C@H](C)c2cccc(C(F)F)c2C)c2cn(C34CCC(C(=O)N(C)C)(CC3)C4)c(=O)cc2n1 [I-24],8.00
16,Cc1nc(N[C@H](C)c2cccc(C(F)(F)F)c2)c2cn(C3CC3)c(=O)cc2n1 [I-26],7.43

row,SMILES,pIC50
1,Cc1nc(N[C@H](C)c2cccc(C(F)(F)F)c2)c2cn(C3CCCC3)c(=O)cc2n1 [I-28],7.57
2,Cc1nc(N[C@H](C)c2cccc(C(F)(F)F)c2)c2cn(C3CCCCC3)c(=O)cc2n1 [I-29],7.62
3,Cc1nc(N[C@H](C)c2cccc(C(F)(F)F)c2)c2cn(C3CCC(F)(F)CC3)c(=O)cc2n1 [I-30],7.41
4,Cc1nc(N[C@H](C)c2cccc(C(F)(F)F)c2)c2cn(C3CCOCC3)c(=O)cc2n1 [I-31],7.96
5,Cc1nc(N[C@H](C)c2cccc(C(F)(F)F)c2F)c2cn([C@H]3[C@@H]4COC[C@@H]43)c(=O)cc2n1 [I-32],7.92
6,Cc1nc(N[C@H](C)c2cccc(C(F)(F)F)c2F)c2cn([C@@H]3CCOC3)c(=O)cc2n1 [I-33],7.42
7,Cc1nc(N[C@H](C)c2cccc(C(F)(F)F)c2F)c2cn([C@H]3CCOC3)c(=O)cc2n1 [I-34],7.41
8,Cc1nc(N[C@H](C)c2cccc(C(F)(F)F)c2F)c2cn(C3CCOCC3)c(=O)cc2n1 [I-35],8.05
9,Cc1nc(N[C@H](C)c2cccc(C(F)(F)F)c2F)c2cn(C3(c4ccccc4)CCOCC3)c(=O)cc2n1 [I-36],7.40
10,Cc1nc(N[C@H](C)c2cccc(C(F)(F)F)c2C)c2cn([C@H]3[C@@H]4COC[C@@H]43)c(=O)cc2n1 [I-40],8.05
11,Cc1nc(N[C@H](C)c2cccc(C(F)(F)F)c2C)c2cn(C3CCC3)c(=O)cc2n1 [I-41],7.85
12,Cc1nc(N[C@H](C)c2cccc(C(F)(F)F)c2C)c2cn(C3(C)CCC3)c(=O)cc2n1 [I-42],8.05
13,Cc1nc(N[C@H](C)c2cccc(C(F)(F)F)c2C)c2cn([C@H]3C[C@H](O)C3)c(=O)cc2n1 [I-43],8.30
14,Cc1nc(N[C@H](C)c2cccc(C(F)(F)F)c2C)c2cn([C@H]3C[C@@H](O)C3)c(=O)cc2n1 [I-44],7.92
15,Cc1nc(N[C@H](C)c2cccc(C(F)(F)F)c2C)c2cn(C3(C)CC(F)(F)C3)c(=O)cc2n1 [I-46],7.51
